Source: patent US8318467B2, “Inhibitors of GSK-3 and crystal structures of GSK-3β protein and protein complexes” (Vertex Pharmaceuticals Incorporated, priority 2001, dated 2012)

Target: T1, GSK-3β (amino acids 1-420) (Homo sapiens, UniProt P49841)
T1 construct: hexa-histidine tag with thrombin cleavage site (N); made in house
Assay: Ki determination for the inhibition of GSK-3 (standard coupled enzyme system)
Type: biochemical
Conditions: 20 μM ATP, 300 μM peptide, 20 nM GSK-3β, 30° C.; read-out: Ki (GSK-3 inhibitory activity)
Description: Reactions were carried out in a solution containing 100 mM HEPES (pH 7.5), 10 mM MgCl2, 25 mM NaCl, 300 μM NADH, 1 mM DTT and 1.5% DMSO. […] Reactions were carried out at 30° C. and 20 nM GSK-3β. Final concentrations of the components of the coupled enzyme system were 2.5 mM phosphoenolpyruvate, 300 μM NADH, 30 μg/ml pyruvate kinase and 10 μg/ml lactate dehydrogenase.
An assay stock buffer solution was prepared containing all of the reagents listed above with the exception of ATP and the test compound of interest. The assay stock buffer solution (175 μl) was incubated in a 96 well plate with 5 μl of the test compound of interest at final concentrations spanning 0.002 μM to 30 μM at 30° C. for 10 min. […] The reaction was initiated by the addition of 20 μl of ATP (final concentration 20 μM). Reaction rates were obtained using a Molecular Devices Spectramax plate reader (Sunnyvale, Calif.) over 10 min at 30° C. The Ki values were determined from the rate data as a function of inhibitor concentration.

T1 sequence (P49841 whole entry, the tested form may be a part): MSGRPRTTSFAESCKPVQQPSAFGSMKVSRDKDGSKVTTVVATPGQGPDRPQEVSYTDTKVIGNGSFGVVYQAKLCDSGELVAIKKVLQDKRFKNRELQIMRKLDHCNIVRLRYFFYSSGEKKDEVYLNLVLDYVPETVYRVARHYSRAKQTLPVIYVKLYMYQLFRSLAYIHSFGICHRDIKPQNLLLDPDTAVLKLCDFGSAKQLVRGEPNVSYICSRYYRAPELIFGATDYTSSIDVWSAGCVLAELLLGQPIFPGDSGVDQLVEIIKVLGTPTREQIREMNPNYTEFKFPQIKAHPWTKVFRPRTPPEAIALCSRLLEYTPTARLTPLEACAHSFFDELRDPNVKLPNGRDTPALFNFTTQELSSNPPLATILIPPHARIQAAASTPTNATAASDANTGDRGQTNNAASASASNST

Row | SMILES | Ki [nM]
1 | Nc1n[nH]c2nnc(-c3ccccc3)c(-c3ccc(Cl)cc3)c12 [Compound 2, 3-Amino-4(4-chlorophenyl)-5-phenyl-1H-pyrazolo[3,4-c]pyridazine] | > 10000
2 | Nc1n[nH]c2nnc(-c3ccc(F)cc3)c(-c3ccc(F)cc3)c12 [Compound 3, 3-Amino-4,5-bis(4-fluorophenyl)-1H-pyrazolo[3,4-c]pyridazine] | 100 to 10000
3 | Nc1n[nH]c2nnc(-c3ccc(F)cc3)c(-c3ccccc3)c12 [Compound 4, 3-Amino-4-phenyl-5-(4-fluorophenyl)-1H-pyrazolo[3,4-c]pyridazine] | > 10000
4 | Nc1n[nH]c2nnc(-c3ccccc3)c(-c3ccc(F)cc3)c12 [Compound 5, 3-Amino-4-(1-fluorophenyl)-5-phenyl-1H-pyrazolo[3,4-c]pyridazine] | < 100
5 | Nc1n[nH]c2nnc(-c3ccccc3)c(-c3cccc(F)c3)c12 [Compound 6, 3-Amino-4(3-fluorophenyl)-5-phenyl-1H-pyrazolo[3,4-c]pyridazine] | < 100
6 | Nc1n[nH]c2nnc(-c3ccncc3)c(-c3ccccc3)c12 [Compound 7, 3-Amino-4-phenyl-5-(4-pyridyl)-1H-pyrazolo[3,4-c]pyridazine] | > 10000
7 | Nc1n[nH]c2nnc(-c3cccc(F)c3)c(-c3ccccc3)c12 [Compound 8, 3-Amino-4-phenyl-5-(3-fluorophenyl)-1H-pyrazolo[3,4-c]pyridazine] | < 100
8 | CC(=O)Nc1n[nH]c2nnc(-c3ccccc3)c(-c3ccccc3)c12 [Compound 9, N-(4,5-Diphenyl-1H-pyrazolo[3,4-c]pyridazin-3-yl)-acetamide] | 100 to 10000
9 | O=C(Nc1n[nH]c2nnc(-c3ccccc3)c(-c3ccccc3)c12)c1ccccc1 [Compound 10, N-(4,5-Diphenyl-1H-pyrazolo[3,4-c]pyridazin-3-yl)-benzamide] | 100 to 10000
10 | Cc1ccc(-c2nnc3[nH]nc(N)c3c2-c2ccccc2)cc1 [Compound 11, 3-Amino-4-phenyl-5-(4-methyl-phenyl)-1H-pyrazolo[3,4-c]pyridazine] | < 100
11 | Cc1ccccc1-c1nnc2[nH]nc(N)c2c1-c1ccccc1 [Compound 12, 3-Amino-4-phenyl-5-(2-methyl-phenyl)-1H-pyrazolo[3,4-c]pyridazine] | 100 to 10000
12 | Cc1cccc(-c2nnc3[nH]nc(N)c3c2-c2ccccc2)c1 [Compound 13, 3-Amino-4-phenyl-5-(3-methyl-phenyl)-1H-pyrazolo[3,4-c]pyridazine] | 100 to 10000
13 | Nc1n[nH]c2nnc(-c3ccccc3Cl)c(-c3ccccc3)c12 [Compound 14, 3-Amino-4-phenyl-5-(2-chloro-phenyl)-1H-pyrazolo[3,4-c]pyridazine] | < 100
14 | Nc1n[nH]c2nnc(-c3ccccc3F)c(-c3ccccc3)c12 [Compound 15, 3-Amino-4-phenyl-5-(2-fluorophenyl)-1H-pyrazolo[3,4-c]pyridazine] | < 100
15 | Nc1n[nH]c2nnc(-c3ccc(Cl)cc3)c(-c3ccccc3)c12 [Compound 16, 3-Amino-4-phenyl-5-(4-chloro-phenyl)-1H-pyrazolo[3,4-c]pyridazine] | 100 to 10000
16 | Nc1n[nH]c2nncc(-c3ccccc3)c12 [Compound 32, 4-Phenyl-1H-pyrazolo[3,4-c]pyridazin-3-ylamine] | 100 to 10000
